# Results as given in PubChem BioAssay AID489034 (Sanford-Burnham Center for Chemical Genomics, 2010).
# Calls of active or inactive are those of the source.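 The calls were made as follows: active = mean IC50 at or below a set limit; inactive = the rest.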
# Test system: 697 B-cell NF-kB luciferase reporter, PMA/ionomycin, 16 h
# Experiment: NF-kB reporter suppression in B cells – 697 B cells, PMA/ionomycin, luminescence, dose response (AID 489034)
row,SMILES,IC50
1,CCOc1ccc(S(=O)(=O)NCc2ccncc2)cc1,> 80000 nM (inactive)
2,CCc1ccc(-c2nc(CS(=O)CC(=O)NCc3ccco3)c(C)o2)cc1 (stereo not drawn),> 80000 nM (inactive)
3,COc1cccc2c1C(=O)c1c(O)c3c(c(O)c1C2=O)C[C@@](O)(C(=O)CO)C[C@@H]3O[C@H]1C[C@H](N)[C@H](O)[C@H](C)O1,> 80000 nM (inactive)
4,COc1cc(/C=N/NC(=S)Nc2cccc(C(=O)O)c2)ccc1O,15300 nM
5,C#CC(=O)N(c1ccc(OC)c(OC)c1)C(C(=O)NC1CCCC1)c1cccs1 (stereo not drawn),200 nM
6,CCCCCCCCCCCCn1ccc(=N)cc1,9190 nM
7,COc1ccccc1C(=O)Nc1nc(-c2ccc(S(=O)(=O)N3CCOCC3)cc2)cs1,7170 nM
8,CCCCCn1c(=O)[nH]c2cc(C(=O)N3CCN(Cc4ccc5c(c4)OCO5)CC3)ccc2c1=O,> 80000 nM (inactive)
9,COc1cc2nc(NC(=O)c3ccccc3)sc(=O)c2cc1OC,444 nM
10,O=C(NCCNCCO)C1(C(F)(F)F)C/C(=C\CCO)CCCO1 (stereo not drawn),> 80000 nM (inactive)
11,CN(C)c1ccc(-c2n(C)c3ccccc3[n+]2C)cc1,> 80000 nM (inactive)
12,Cc1cc(CSc2ccccc2)ccc1NC(=O)c1ccc(CN2CCOCC2)cc1,> 80000 nM (inactive)
13,COc1ccc(-c2nc(-c3ccccn3)no2)cc1,872 nM
14,Cc1cc(Cl)c(S(=O)(=O)N2CCN(c3ccc(F)cc3)CC2)cc1OCC(=O)NC1CCCCC1,> 80000 nM (inactive)
15,COc1cc2c(cc1OC)[C@@H]1C(=O)c3ccc4c(c3O[C@@H]1CO2)C[C@H](C(C)C)O4,> 80000 nM (inactive)
16,Cc1ccc(C(=O)CN2C(=O)c3ccccc3S2(=O)=O)cc1,1330 nM
17,COc1ccc(CCNc2ncnc3sccc23)cc1OC,77400 nM (inactive)
18,COC1=CC(=O)[C@]2(C=C1OC)OC[C@@H]1Oc3c(ccc4c3C=CC(C)(C)O4)C(=O)[C@@H]12,47700 nM (inactive)
19,CCOc1ccc(/C=C2\SC(=S)N(CCC(=O)O)C2=O)cc1,211 nM
20,Cc1ccc2nc(NC(=O)CCCC(=O)O)sc2c1,2130 nM
21,COc1ccc(C(=O)CN2C(=O)c3ccccc3S2(=O)=O)cc1,691 nM
22,O=C(COC(=O)c1ccc[nH]c1=O)Nc1ccc(N2CCCCC2)cc1,436 nM
23,CC(=O)O[C@H]1[C@H]2O[C@]23[C@@H]2CC[C@]4(O)C[C@@H](O)CC[C@]4(C)C2CC[C@]3(C)[C@H]1c1ccc(=O)oc1 (stereo partly drawn),223 nM
24,Cc1cc(C(=O)COC(=O)c2ccccc2O)c(C)n1CC1CCCO1 (stereo not drawn),267 nM
25,C#CC(=O)N(c1cccc(OC)c1)C(C(=O)NC1CCCC1)c1cccs1 (stereo not drawn),219 nM

row,SMILES,IC50
1,CCCCCCCCNc1ncnc2ccccc12,> 80000 nM (inactive)
2,Nc1nc(Cl)nc2c1ncn2[C@H]1C[C@H](O)[C@@H](CO)O1,5060 nM
3,CC1CCN(c2nc3ccc(C(=O)O)cc3s2)CC1,1330 nM
4,O=C(NCCc1ccccc1)c1ccc2c(c1)OCCCO2,366 nM
5,N=c1c2c(-c3ccccc3)c(-c3ccccc3)n(Cc3ccccc3)c2ncn1CCCn1ccnc1,32200 nM (inactive)
6,CC1(c2ccc3ccccc3c2)NC(=O)N(CC(=O)N2CCN(Cc3ccc(C#N)cc3)CC2)C1=O (stereo not drawn),> 80000 nM (inactive)
7,Nc1ncnc2c1ccn2[C@@H]1O[C@H](CO)[C@@H](O)[C@H]1O,1010 nM
8,CN(C)c1cc[n+](CC(=O)c2ccc(-c3ccccc3)cc2)cc1,47400 nM (inactive)
9,COc1cccc2c1C(CO)N1C(C#N)C3CC(C(=O)O)C(C1C2)N3C (stereo not drawn),253 nM
10,N#CC(c1cccc(Cl)c1)c1ccc2c(C(F)(F)F)cc(C(F)(F)F)nc2n1 (stereo not drawn),> 80000 nM (inactive)
11,COc1ccc(/C=C2\SC(=O)N(CCCC(=O)Nc3cc(Cl)ccc3C(=O)O)C2=O)cc1,331 nM
12,O=C(O)CSCC(=O)Nc1ccc(C2CCCCC2)cc1,776 nM
13,COc1cc([N+](=O)[O-])cc(/C=N/NC(=O)c2ccc(NC(=O)c3ccc(C)cc3)cc2)c1O,1020 nM
14,COc1cc(NC(C)CCCN)c2ncccc2c1 (stereo not drawn),> 80000 nM (inactive)
15,CC(C)(C)c1ccc(C(=O)N2CCCCCC2=O)cc1,579 nM
16,OCCCNc1cc(-c2ccnc(Nc3cccc(Cl)c3)n2)ccn1,< 160 nM
17,CCOc1ccc(-c2cc(CCCC(=O)Nc3cccc(OC)c3)no2)cc1,11300 nM
18,O=C(CN1C(=O)c2ccccc2S1(=O)=O)c1ccc2c(c1)OCCO2,< 160 nM
19,Cc1cc([N+](=O)[O-])nn1Cc1ccccc1F,> 80000 nM (inactive)
20,COC(=O)CCn1nnc(-c2ccc(C(C)C)cc2)n1,< 160 nM
21,Cc1sc2ncnc(N3CCN(CCOc4ccc(Cl)cc4)CC3)c2c1C,> 80000 nM (inactive)
22,CC(C)(O)c1[nH]c2ccc(C#N)cc2c1C(C)(C)O,> 80000 nM (inactive)
23,Cn1nccc1C(=O)NC1CCCc2c1cnn2-c1ccc(F)cc1F (stereo not drawn),> 80000 nM (inactive)
24,CCN(CC)S(=O)(=O)c1ccc(Oc2ccc(S(=O)(=O)N(CC)CC)cc2)cc1,> 80000 nM (inactive)
25,CC1CCCN(c2ccc([N+](=O)[O-])cc2C(=O)c2ccccc2)C1 (stereo not drawn),> 80000 nM (inactive)

row,SMILES,IC50
1,Cc1cc(NNC(=O)Nc2cccc(Cl)c2)nc2c1c(C)nn2C,> 80000 nM (inactive)
2,CC(C)Cc1cc(C(C)(C)C)ccc1OC(=S)N(C)C,> 80000 nM (inactive)
3,Cn1nc(C(C)(C)C)cc1C(=O)NCc1ccc(N2CCCC2=O)cc1,> 80000 nM (inactive)
4,CN=c1scc(-c2ccccc2F)n1/N=C/c1ccc[nH]1,702 nM
5,CCN1/C(=C\c2ccc3ccccc3[n+]2CC)Sc2cc(C)ccc21,> 80000 nM (inactive)
6,COc1ccc(C(=O)Nc2nc3ccccc3s2)c(OC)c1,275 nM
7,COc1cccc(NC(=O)Nc2cccc(C(=O)O)c2)c1,1620 nM
8,O=C(Nc1ccc(Cl)cc1)Nc1cccc(C(=O)O)c1,2220 nM
9,O=C(Nc1ccc([N+](=O)[O-])cc1)C(=O)Nc1cccc(C(=O)O)c1,946 nM
10,COc1ccc(-c2c[n+]3c(n2-c2ccc(C)cc2)CCCCC3)cc1,> 80000 nM (inactive)
11,N#Cc1c(NC(=O)CSc2ncn[nH]2)sc2c1CCCCC2,283 nM
12,C#CC(=O)N(c1cc(OC)ccc1OC)C(C(=O)NC1CCCC1)c1cccs1 (stereo not drawn),219 nM
13,Cc1ccc(C(=O)Nc2cccc(C(F)(F)F)c2)cc1NC(=O)c1ccno1,4090 nM
14,CC(Nc1ncnc2sccc12)c1ccccc1 (stereo not drawn),64400 nM (inactive)
15,C=C1C(=O)O[C@@H]2C[C@@H](C)[C@@H]3C=CC(=O)[C@@]3(C)[C@@H](OC(=O)CC(=O)O[C@H]3[C@@H]4C(=C)C(=O)O[C@@H]4C[C@@H](C)[C@@H]4C=CC(=O)[C@]43C)[C@H]12,377 nM
16,CCCCCCn1ccc(=N)cc1,> 80000 nM (inactive)
17,CCOc1ccc(NC(=O)Nc2cccc(C(=O)O)c2)cc1,504 nM
18,O=C(CSc1nnnn1C1CC2CCC1C2)Nc1ccnc2ccccc12 (stereo not drawn),> 80000 nM (inactive)
19,C[C@H](NC(=O)c1nc[nH]c1C(=O)N[C@@H](C)C(=O)OCc1ccccc1)C(=O)OCc1ccccc1,> 80000 nM (inactive)
20,CCCCCCCCn1ccc(=N)cc1,> 80000 nM (inactive)
21,C=C1C(O)[C@@H]2O[C@]3(CC[C@H](/C=C/C(C)[C@@H]4CC(C)=CC5(O[C@H](C[C@@](C)(O)C(=O)O)CCC5O)O4)O3)CC[C@H]2O[C@@H]1C(O)CC(C)[C@H]1OC2(CCCCO2)CCC1C (stereo partly drawn),< 160 nM
22,C=CCn1c(C)cc(C(=O)CN2C(=O)c3ccccc3S2(=O)=O)c1C,656 nM
23,Cc1nn(-c2ccccc2)c(C)c1/C=N/NC(=O)c1cc(-c2cccs2)[nH]n1,21500 nM (inactive)
